Laboratory results as given in article PMC4471549 (Angewandte Chemie (International Ed. in English), 2015).

How the values were obtained:
STAT5b (SH2 domain) = target: T1, STAT5b (SH2 domain) (Homo sapiens, UniProt P51692); assay: competitive fluorescence polarization assay; assay type: binding
T1 sequence (P51692 1-787 limits assumed): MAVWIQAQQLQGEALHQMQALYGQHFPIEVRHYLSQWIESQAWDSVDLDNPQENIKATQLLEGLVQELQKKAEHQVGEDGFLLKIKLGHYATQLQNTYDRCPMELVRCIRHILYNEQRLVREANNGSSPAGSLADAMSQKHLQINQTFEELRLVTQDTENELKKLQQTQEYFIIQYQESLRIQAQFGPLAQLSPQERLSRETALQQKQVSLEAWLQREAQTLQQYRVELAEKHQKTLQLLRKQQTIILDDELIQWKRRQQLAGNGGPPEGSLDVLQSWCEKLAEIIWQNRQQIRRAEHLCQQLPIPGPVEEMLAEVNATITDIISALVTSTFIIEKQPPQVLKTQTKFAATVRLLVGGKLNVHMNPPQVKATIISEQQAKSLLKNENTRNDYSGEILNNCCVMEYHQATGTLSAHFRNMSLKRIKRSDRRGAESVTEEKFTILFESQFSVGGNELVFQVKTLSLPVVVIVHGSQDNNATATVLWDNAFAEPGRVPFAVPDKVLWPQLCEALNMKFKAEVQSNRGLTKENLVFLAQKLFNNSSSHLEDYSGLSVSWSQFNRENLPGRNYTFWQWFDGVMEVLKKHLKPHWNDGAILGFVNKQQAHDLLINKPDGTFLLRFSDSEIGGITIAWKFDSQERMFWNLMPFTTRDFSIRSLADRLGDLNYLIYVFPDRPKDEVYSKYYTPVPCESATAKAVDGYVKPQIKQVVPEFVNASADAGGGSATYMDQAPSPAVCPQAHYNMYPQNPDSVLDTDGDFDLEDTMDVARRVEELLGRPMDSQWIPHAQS

STAT5a (SH2 domain) = target: T2, STAT5a (SH2 domain) (Homo sapiens, UniProt P42229); assay: competitive fluorescence polarization assay; assay type: binding
T2 sequence (P42229 1-794): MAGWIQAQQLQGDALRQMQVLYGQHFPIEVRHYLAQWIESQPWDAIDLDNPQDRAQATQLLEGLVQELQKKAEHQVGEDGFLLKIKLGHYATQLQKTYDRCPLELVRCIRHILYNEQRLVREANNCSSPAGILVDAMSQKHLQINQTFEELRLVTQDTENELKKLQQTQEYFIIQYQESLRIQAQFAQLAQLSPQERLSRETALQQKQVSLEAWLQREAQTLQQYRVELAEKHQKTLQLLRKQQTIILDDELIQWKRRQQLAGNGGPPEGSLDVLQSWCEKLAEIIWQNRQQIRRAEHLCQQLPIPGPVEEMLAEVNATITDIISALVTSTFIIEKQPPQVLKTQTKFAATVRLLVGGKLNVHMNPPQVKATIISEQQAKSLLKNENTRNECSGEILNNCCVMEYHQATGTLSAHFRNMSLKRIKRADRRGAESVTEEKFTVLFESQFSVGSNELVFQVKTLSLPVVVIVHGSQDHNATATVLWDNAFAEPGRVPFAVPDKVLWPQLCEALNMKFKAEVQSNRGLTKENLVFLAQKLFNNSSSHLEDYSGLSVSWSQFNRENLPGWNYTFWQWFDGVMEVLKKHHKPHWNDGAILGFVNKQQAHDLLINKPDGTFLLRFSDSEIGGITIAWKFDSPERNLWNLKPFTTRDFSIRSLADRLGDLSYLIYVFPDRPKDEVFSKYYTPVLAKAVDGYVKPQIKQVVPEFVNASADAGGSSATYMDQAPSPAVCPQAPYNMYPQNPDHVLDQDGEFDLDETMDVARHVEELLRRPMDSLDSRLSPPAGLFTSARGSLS

Row | Ki (STAT5b (SH2 domain)) [µM] | Ki (STAT5a (SH2 domain)) [µM] | Compound
1 | 0.45 ± 0.04 | 16 ± 0.8 | O=C(NCCc1ccc(OP(=O)(O)O)c(OP(=O)(O)O)c1)OCC1c2ccccc2-c2ccccc21 [compound 7, Fmoc-protected dopamine bisphosphate]
2 | 0.46 ± 0.08 | 7.8 ± 1 | COC(=O)[C@H](Cc1ccc(OP(=O)(O)O)c(OP(=O)(O)O)c1)NC(=O)OCC1c2ccccc2-c2ccccc21 [compound 8, Fmoc-protected L-Dopa methyl ester bisphosphate]
